Reference: ChEMBL document CHEMBL4673279, “Aromatic Ring Substituted Aaptamine Analogues as Potential Cytotoxic Agents against Extranodal Natural Killer/T-Cell Lymphoma” (J Nat Prod, 2020)

Assays:
[1] = (§1) Cytotoxicity against human SNK6 cells assessed as reduction in cell viability after 48 hrs by CCK8 assay; type: functional, cell-based; settings: SNK6, 48 h
[2] = tested on: HeLa; test: Cytotoxicity against human HeLa cells assessed as reduction in cell viability after 48 hrs by CCK8 assay; type: functional, cell-based
[3] = tested on: MCF7; test: Cytotoxicity against human MCF7 cells assessed as reduction in cell viability after 48 hrs by CCK8 assay; type: functional, cell-based; settings: MCF7, 48 h
[4] = tested on: NB-4; test: Cytotoxicity against human NB4 cells assessed as reduction in cell viability after 48 hrs by CCK8 assay; type: functional, cell-based; settings: NB-4, 48 h
[5] = tested on: SNT8; test: Cytotoxicity against human SNT8 cells assessed as reduction in cell viability after 48 hrs by CCK8 assay; type: functional, cell-based
[6] = tested on: Ramos; test: Cytotoxicity against human Ramos cells assessed as reduction in cell viability after 48 hrs by CCK8 assay; type: functional, cell-based
[7] = tested on: SUD4; test: Cytotoxicity against human SU-DHL-4 cells assessed as reduction in cell viability after 48 hrs by CCK8 assay; type: functional, cell-based
[8] = tested on: U-937; test: Cytotoxicity against human U937 cells assessed as reduction in cell viability after 48 hrs by CCK8 assay; type: functional, cell-based
[9] = tested on: SNK6; test: as §1; type: functional, cell-based
[10] = tested on: WSUDLCL2; test: (§2) Cytotoxicity against human WSUDLCL2 cells assessed as reduction in cell viability after 48 hrs by CCK8 assay; type: functional, cell-based
[11] = as §2; type: functional, cell-based; settings: WSUDLCL2, 48 h
[12] = Cytotoxicity against human NK92 cells assessed as cell viability at 20 uM after 48 hrs by CCK8 assay relative to control; type: cell-based; settings: read-out: Activity
[13] = tested on: Raji; test: Cytotoxicity against human Raji cells assessed as reduction in cell viability after 48 hrs by CCK8 assay; type: functional, cell-based
[14] = tested on: L02; test: Cytotoxicity against human L02 cells assessed as reduction in cell viability after 48 hrs by CCK8 assay; type: cell-based; settings: L02, 48 h
[15] = Cytotoxicity against human HEK293T cells assessed as cell viability at 20 uM after 48 hrs by CCK8 assay relative to control; type: cell-based, HEK-293T; settings: read-out: Activity
[16] = tested on: GES1; test: Cytotoxicity against human GES1 cells assessed as reduction in cell viability after 48 hrs by CCK8 assay; type: cell-based; settings: GES1, 48 h

Structure (SMILES)	IC50 [1] [µM]	IC50 [2] [µM]	IC50 [3] [µM]	IC50 [4] [µM]	further results
COc1c(OC)c2c3c(nccc3c1-c1cccc(F)c1)C(c1cccc(F)c1)=CN2	10	17	20	> 20	–
COc1c(OC)c2c3c(nccc3c1-c1cccc3ccccc13)C(c1cccc3ccccc13)=CN2	> 20	8.2	> 20	> 20	–
COc1c(OC)c2c3c(nccc3c1-c1ccc(C(F)(F)F)cc1)C=CN2	> 20	11	11	> 20	–
COc1c(OC)c2c3c(nccc3c1-c1cccc(C(C)C)c1)C(c1cccc(C(C)C)c1)=CN2	> 20	> 20	> 20	> 20	–
COc1c(OC)c2c3c(nccc3c1-c1ccc(C)cc1)C(c1ccc(C)cc1)=CN2	11	12	> 20	18	–
CCc1ccc(C2=CNc3c(OC)c(OC)c(-c4ccc(CC)cc4)c4ccnc2c34)cc1	4.2	17	18	16	–
COc1c(OC)c2c3c(nccc3c1-c1cccc3ccccc13)C=CN2	16	18	> 20	> 20	–
COc1c(OC)c2c3c(nccc3c1-c1cccc(C)c1)C(c1cccc(C)c1)=CN2	0.6	7.2	10	2.1	Activity [5]: Dose-dependent effect; Activity [6]: Dose-dependent effect; IC50 [6]: 1.4 µM; Activity [7]: Dose-dependent effect; IC50 ([7]; SU-DHL-4, 48 h): 0.8 µM; Activity [8]: Dose-dependent effect; IC50 ([8]; U-937, 48 h): 2.8 µM; Activity [9]: Dose-dependent effect; Activity [10]: Dose-dependent effect; IC50 [11]: 1.3 µM; viability at 48 h, 20 µM [12]: ≤ 90%; Activity [13]: Dose-dependent effect; IC50 [13]: 1.4 µM; IC50 [14]: 3.4 µM; viability at 48 h, 20 µM [15]: ≤ 90%; IC50 [16]: 2 µM
COc1cc2ccnc3c2c(c1OC)NC=C3c1cccc(C(C)C)c1	8.4	11	> 20	17	–
COc1c(OC)c2c3c(nccc3c1-c1cc(C)cc(C)c1)C(c1cc(C)cc(C)c1)=CN2	3.1	5.4	8.3	7.9	–
COc1ccc(-c2c(OC)c(OC)c3c4c(nccc24)C=CN3)cc1	1.7	11	9.8	> 20	–
COc1c(OC)c2c3c(nccc3c1-c1cccc(C(F)(F)F)c1)C(c1cccc(C(F)(F)F)c1)=CN2	8.6	18	> 20	7.1	–
COc1c(OC)c2c3c(nccc3c1-c1cccc(C(C)C)c1)C=CN2	> 20	> 20	> 20	> 20	–
COc1cc2ccnc3c2c(c1OC)NC=C3c1cccc2ccccc12	> 20	4	> 20	> 20	–
COc1c(OC)c2c3c(nccc3c1-c1ccc(Cl)cc1)C(c1ccc(Cl)cc1)=CN2	8.4	11	> 20	17	–
COc1cc2ccnc3c2c(c1OC)NC=C3 [AAPTAMINE]	> 20	19	> 20	> 20	–

Structure (SMILES)	IC50 [1] [µM]	IC50 [2] [µM]	IC50 [3] [µM]	IC50 [4] [µM]	further results
COc1c(OC)c2c3c(nccc3c1-c1ccc(F)cc1)C(c1ccc(F)cc1)=CN2	> 20	8.7	> 20	19	–
COc1cc2ccnc3c2c(c1OC)NC=C3c1cccc(C)c1	> 20	12	> 20	> 20	–
COc1cc2ccnc3c2c(c1OC)NC=C3c1ccc(Cl)cc1	> 20	> 20	> 20	> 20	–
COc1ccc(C2=CNc3c(OC)c(OC)c(-c4ccc(OC)cc4)c4ccnc2c34)cc1	5.8	13	12	> 20	–
COc1c(OC)c2c3c(nccc3c1-c1ccc(Cl)cc1)C=CN2	7.7	1.9	9.4	> 20	–
COc1cc2ccnc3c2c(c1OC)NC=C3c1cccc(C(F)(F)F)c1	8.8	15	17	> 20	–
COc1c(OC)c2c3c(nccc3c1-c1ccc(C(F)(F)F)cc1)C(c1ccc(C(F)(F)F)cc1)=CN2	9.4	> 20	> 20	> 20	–
COc1c(OC)c2c3c(nccc3c1-c1cccc(C(F)(F)F)c1)C=CN2	4.3	8.9	3.2	> 20	–
CCc1ccc(C2=CNc3c(OC)c(OC)cc4ccnc2c34)cc1	4.9	11	> 20	> 20	–
COc1cc2ccnc3c2c(c1OC)NC=C3c1cccc(F)c1	> 20	> 20	> 20	> 20	–
COc1cc2ccnc3c2c(c1OC)NC=C3c1cccc(O)c1	> 20	> 20	> 20	> 20	–
COc1cc2ccnc3c2c(c1OC)NC=C3c1ccccc1	8.9	17	12	> 20	–
COc1ccc(C2=CNc3c(OC)c(OC)cc4ccnc2c34)cc1	> 20	> 20	> 20	> 20	–
COc1c(OC)c2c3c(nccc3c1-c1ccccc1)C=CN2	> 20	> 20	> 20	> 20	–
COc1c(OC)c2c3c(nccc3c1-c1ccccc1)C(c1ccccc1)=CN2	> 20	11	19	> 20	–
